Data from publication PMC6768323, “Adverse Maternal, Fetal, and Postnatal Effects of Hexafluoropropylene Oxide Dimer Acid (GenX) from Oral Gestational Exposure in Sprague-Dawley Rats” (Environmental Health Perspectives, 2019).

System: fetal testis
Assay: Ex vivo fetal testis testosterone production
Type: in vivo, Sprague-Dawley rats
Conditions: any dose
Protocol: For the first two blocks, spanning the full dose range, late gestation (GD18) dams were euthanized by decapitation at ∼2h after the final oral dose [ ∼0830–1000 hours Eastern Standard Time (EST)]. Trunk blood was collected and serum isolated via centrifugation ( 10,000×g for 15 min at 4°C) in vacutainer tubes, transferred to 1.5-mL microcentrifuge tubes and stored at −80°C . Dam liver weight was recorded and a sample of liver tissue was collected into a polypropylene microcentrifuge tube containing 500μL TRIzol Reagent (Invitrogen) on ice. Fetuses were removed and two randomly selected fetuses per litter were weighed. […] Ex vivo fetal testis testosterone production was measured as previously reported ([Wilson et al. 2004b]) except the radioimmunoassay (RIA) utilized here was supplied by ALPCO (Catalog No. 72-TESTO-CT2, ALPCO). […]
Fetal testis testosterone production was normalized to the mean control concentration within a given block and analyzed as percentage of control values across blocks. Maternal liver weight was analyzed using body weight as a covariate within PROC GLM followed by pairwise comparison using LSMEANS, this analysis produces linear regressions of body weight versus liver weight for each dose group. […]

O=C(O)C(F)(OC(F)(F)C(F)(F)C(F)(F)F)C(F)(F)F (stereo not shown) [HFPO-DA, Hexafluoropropylene oxide dimer acid]
fetal testis testosterone production versus controls: not significantly different from controls at any dose
